In ChEMBL document CHEMBL1201862, “PubChem BioAssay data set” (2004):
The source made the active and inactive calls. Rule as the data show it, for most assays here: actives have a measured EC50 and inactives only a lower limit.

Experiments:
[1] = biological target: T1, Ubiquitin-conjugating enzyme E2 N (Homo sapiens, UniProt P61088); type: functional;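 also: Dose-response confirmation in a TR-FRET assay detecting UBC13-driven polyubiquitin chain formation, inhibition measured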
T1 sequence (P61088 whole entry): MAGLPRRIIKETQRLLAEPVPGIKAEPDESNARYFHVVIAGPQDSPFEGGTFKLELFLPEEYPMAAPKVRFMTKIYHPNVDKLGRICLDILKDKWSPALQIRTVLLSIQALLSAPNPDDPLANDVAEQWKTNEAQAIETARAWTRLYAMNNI

[2] = Luminescence Cell-Based Dose Response HTS to Identify Activators of Luciferase Translation or Activity in H4 […] Cells. [Related pubchem assays: 1829 (Project Summary), 1814 (Primary HTS)]; type: functional
H4 = assay: Luminescence Cell-Based Dose Response HTS to Identify Activators of 5'UTR Stem-Loop Driven Prion Protein mRNA Translation in H4 Neuroglioblastoma Cells. [Related pubchem assays: 1829 (Project Summary), 1814 (Primary HTS)]; type: functional; conditions: Homo sapiens
[3] = viability of uninfected HEp-2 cells – cell-based, HTS, cytotoxicity control for RSV inhibitor project, dose response (AID 2410); type: functional; conditions: human respiratory syncytial virus
[4] = biological target: Luciferin 4-monooxygenase (Photinus pyralis, UniProt P08659); assay: inhibition of purified Photinus pyralis luciferase – biochemical, luminescence, dose response (AID 1891)
[5] = Luminescence Cell-Based Dose Confirmation HTS to Identify Inhibitors of Platelet Dense Granule Release. [Related pubchem assays: 1663 (Primary HTS), 1678 (Summary of Project)]; type: functional
INS1 = assay: INS-1E survival protection against cytokine death – cell-based, luminescence, retest, dose response (AID 449756); type: functional; conditions: Rattus norvegicus;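 also: cell death triggered by IL-1 beta plus TNF-alpha plus IFN-gamma mixture; protective hits raise ATP signal compared with cytokine alone wells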
[6] = biological target: T2, RNA-binding protein pos-1 (Caenorhabditis elegans, UniProt G5EF15); assay: disruptors of C. elegans POS-1 RNA interaction – biochemical, fluorescence polarization, dose response (AID 1964);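 also: purified POS-1 fused to maltose binding protein made in E. coli; potency of compounds blocking POS-1 binding to fluorescent RNA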
T2 sequence (G5EF15 whole entry): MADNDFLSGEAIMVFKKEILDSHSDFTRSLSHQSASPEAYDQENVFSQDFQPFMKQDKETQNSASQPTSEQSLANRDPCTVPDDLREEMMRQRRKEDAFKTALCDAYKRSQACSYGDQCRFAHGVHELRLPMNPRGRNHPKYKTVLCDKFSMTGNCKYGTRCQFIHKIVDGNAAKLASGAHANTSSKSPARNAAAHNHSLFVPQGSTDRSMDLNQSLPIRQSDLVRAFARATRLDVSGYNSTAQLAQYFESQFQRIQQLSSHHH

[7] = biological target: T3, Zinc finger protein mex-5 (Caenorhabditis elegans, UniProt Q9XUB2); assay: potency of MEX-5 RNA-binding blockers – biochemical, C. elegans, fluorescence polarization, dose response (AID 1960)
T3 sequence (Q9XUB2 whole entry): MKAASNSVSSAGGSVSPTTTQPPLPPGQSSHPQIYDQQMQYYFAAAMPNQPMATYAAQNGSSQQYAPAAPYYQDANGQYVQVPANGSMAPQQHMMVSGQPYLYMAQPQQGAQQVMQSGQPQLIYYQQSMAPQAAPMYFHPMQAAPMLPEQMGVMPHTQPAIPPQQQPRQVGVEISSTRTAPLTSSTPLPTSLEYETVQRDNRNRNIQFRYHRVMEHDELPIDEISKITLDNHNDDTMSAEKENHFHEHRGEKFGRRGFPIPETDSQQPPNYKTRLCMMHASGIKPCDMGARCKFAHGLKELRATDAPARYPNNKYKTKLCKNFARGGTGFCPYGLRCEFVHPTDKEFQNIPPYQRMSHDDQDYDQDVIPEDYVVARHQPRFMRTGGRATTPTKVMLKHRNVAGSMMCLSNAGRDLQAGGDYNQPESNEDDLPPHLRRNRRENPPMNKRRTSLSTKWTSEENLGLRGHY

[8] = Luminescence Cell-Based Dose Retest to Confirm Inhibitors of Cancer Stem Cells. [Related pubchem assays (depositor defined):AID2717, AID2721]; type: functional; conditions: Homo sapiens
[9] = test system: Streptococcus sp. 'group A'; assay: Streptococcus pyogenes SK(-)GAS viability under kanamycin – luminescence, BacTiterGlo, confirmation, counter-screen for streptokinase expression inhibitor project, dose response (AID 1900); type: functional, organism-based
Streptokinase A = biological target: T4, Streptokinase A (Streptococcus pyogenes serotype M1, UniProt P10520); assay: viability-normalized secreted streptokinase activity reduction – plasminogen activation absorbance, OD405, dose response (AID 1914); type: functional, Streptococcus pyogenes M1 GAS;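 also: secreted streptokinase activity via plasminogen activation per viability signal from cell pellet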
T4 sequence (P10520 whole entry): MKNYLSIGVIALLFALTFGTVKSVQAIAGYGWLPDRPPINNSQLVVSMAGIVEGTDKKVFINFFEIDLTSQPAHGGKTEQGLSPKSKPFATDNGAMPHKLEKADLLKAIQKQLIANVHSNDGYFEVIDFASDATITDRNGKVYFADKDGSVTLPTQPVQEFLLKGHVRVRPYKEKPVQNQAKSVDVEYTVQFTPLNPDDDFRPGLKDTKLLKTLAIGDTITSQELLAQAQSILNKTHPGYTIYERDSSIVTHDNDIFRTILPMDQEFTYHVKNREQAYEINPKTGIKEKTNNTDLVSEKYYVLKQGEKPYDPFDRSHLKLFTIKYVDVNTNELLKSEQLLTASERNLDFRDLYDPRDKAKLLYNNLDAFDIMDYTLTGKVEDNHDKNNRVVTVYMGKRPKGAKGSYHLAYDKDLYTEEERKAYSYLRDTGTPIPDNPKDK

Streptococcus = assay: GAS UMAA2166 growth inhibition – luminescence, BacTiterGlo, counter-screen for streptokinase expression inhibitor project, dose response (AID 1915); type: functional, organism-based; conditions: read-out: EC50;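 also: potency for reduction of bacterial viability or growth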
Protein RecA = biological target: T5, Protein RecA (Mycobacterium tuberculosis, UniProt P9WHJ3); assay: Fluorescence Cell-Free Homogeneous Dose Retest to Identify Inhibitors of RecA-Intein Splicing Activity. [Related pubchem assays (depositor defined):AID2097, AID2223, AID489010, AID492950]; type: functional
T5 sequence (P9WHJ3 whole entry): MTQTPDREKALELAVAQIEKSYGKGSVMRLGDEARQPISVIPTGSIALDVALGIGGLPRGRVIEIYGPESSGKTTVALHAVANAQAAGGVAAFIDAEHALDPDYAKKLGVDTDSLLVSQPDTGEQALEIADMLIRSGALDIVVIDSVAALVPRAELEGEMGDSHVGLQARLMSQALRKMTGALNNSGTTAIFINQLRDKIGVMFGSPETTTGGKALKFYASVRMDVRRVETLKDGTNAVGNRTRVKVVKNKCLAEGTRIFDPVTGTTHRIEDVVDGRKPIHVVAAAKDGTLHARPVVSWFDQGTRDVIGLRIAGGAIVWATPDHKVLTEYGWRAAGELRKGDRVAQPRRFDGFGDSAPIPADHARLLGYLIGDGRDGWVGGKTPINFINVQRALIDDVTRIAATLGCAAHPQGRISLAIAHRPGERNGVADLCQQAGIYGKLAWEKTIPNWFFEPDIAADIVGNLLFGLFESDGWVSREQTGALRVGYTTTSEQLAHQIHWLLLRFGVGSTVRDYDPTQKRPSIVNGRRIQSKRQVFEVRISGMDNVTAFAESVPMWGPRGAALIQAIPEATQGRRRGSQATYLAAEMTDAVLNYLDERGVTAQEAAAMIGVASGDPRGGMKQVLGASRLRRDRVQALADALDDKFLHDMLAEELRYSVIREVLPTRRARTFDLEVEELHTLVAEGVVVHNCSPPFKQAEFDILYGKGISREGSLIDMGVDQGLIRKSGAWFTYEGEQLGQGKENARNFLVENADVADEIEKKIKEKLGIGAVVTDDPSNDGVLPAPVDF

Chain of Luciferin 4-monooxygenase (P08659 whole entry): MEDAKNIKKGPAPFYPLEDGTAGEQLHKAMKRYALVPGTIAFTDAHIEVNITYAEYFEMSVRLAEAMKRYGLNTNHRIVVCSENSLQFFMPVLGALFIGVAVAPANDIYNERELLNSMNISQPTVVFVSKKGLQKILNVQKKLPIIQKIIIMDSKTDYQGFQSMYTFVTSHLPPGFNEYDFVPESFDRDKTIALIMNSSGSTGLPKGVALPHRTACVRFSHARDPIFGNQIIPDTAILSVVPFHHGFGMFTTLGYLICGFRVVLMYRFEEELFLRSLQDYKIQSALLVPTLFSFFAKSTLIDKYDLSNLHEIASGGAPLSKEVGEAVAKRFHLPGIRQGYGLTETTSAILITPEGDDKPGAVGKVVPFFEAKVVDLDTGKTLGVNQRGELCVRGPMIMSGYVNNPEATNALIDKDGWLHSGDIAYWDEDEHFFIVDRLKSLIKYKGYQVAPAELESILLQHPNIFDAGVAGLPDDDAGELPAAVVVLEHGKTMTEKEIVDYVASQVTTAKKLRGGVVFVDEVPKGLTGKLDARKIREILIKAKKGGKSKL

NC1=NC[C@@H](Cc2ccc(O)cc2)N1CCc1cc(C(F)(F)F)cc(C(F)(F)F)c1
IC50 [1]: > 20 µM (inactive)

Nc1cc(-c2nc3ncccc3o2)ccc1Cl
EC50 [2]: 4.25 µM (active)
EC50 (H4): > 120 µM (not active)

Nc1c2c(nc3ccc(Br)cc13)N(Cc1ccccc1)CC2
CC50 [3]: 9.17 µM (active)

Cc1nn(C)c(Cl)c1CN1CCN(C2CCCCC2)C(CCO)C1 (stereo not drawn)
EC50 [4]: > 112 µM (not active)
EC50 [5]: > 112 µM (not active)

COc1ccc(-c2cc(-c3cccs3)nc(OC)c2C#N)cc1OC
IC50 [1]: > 20 µM (inactive)

O=C(CCc1nc(O)c2ccccc2n1)NCCN1C(=O)S/C(=C\c2ccccc2Cl)C1=O
CC50 [3]: 23.9 µM (active)

COc1ccc(C(CCN2CCCC2)c2c(OC)cc(OC)c3c(-c4ccccc4)cc(=O)oc23)cc1 (stereo not drawn)
IC50 [1]: > 20 µM (inactive)

CC(=O)c1ccc(NC(S)=NCc2cccnc2)cc1
AC50 (INS1): 5.94 µM (active)

Cc1ccc(C2CC(c3cccc(Br)c3)n3nc(N)nc3N2)cc1 (stereo not drawn)
AC50 (INS1): 34.1 µM (active)

CC(=O)C1=C(C)NC(SCC(=O)c2ccc(Cl)cc2)=C(C#N)C1CC(C)C (stereo not drawn)
CC50 [3]: 23.4 µM (active)

COC(=O)C(C#N)c1nc2ccccc2nc1N1CCN(Cc2ccc3c(c2)OCO3)CC1 (stereo not drawn)
EC50 [4]: > 112 µM (not active)
EC50 [5]: > 112 µM (not active)

CC1CCN(C(=O)C2CCN(CC(C)c3ccccc3)CC2)CC1 (stereo not drawn)
EC50 [4]: > 112 µM (not active)
EC50 [5]: > 112 µM (not active)

CCOC(=O)/C(C#N)=C/c1cc2ccccc2nc1N1CCCCC1
EC50 [6]: > 300 µM (not active)
EC50 [7]: 104 µM (active)

COc1ccccc1-c1oc2ccccc2c1C#CC1(N)CCCCC1
AC50 [8]: 5.52 µM (active)
IC50 [1]: > 20 µM (inactive)

CCCCOC(=O)c1ccc(NC(=O)CN2C(=O)NC3(CCCCCC3)C2=O)cc1
CC50 [3]: 31.9 µM (active)

C=CCn1c(N)c(C(=O)Nc2cccc(C)c2)c2nc3ccccc3nc21
CC50 [3]: 11.4 µM (active)
EC50 [9]: 2.97 µM (active)
EC50 (Streptokinase A): > 150 µM (not active)
EC50 (Streptococcus): 8.54 µM (active)
EC50 (Protein RecA): 13.3 µM (active)

CN1C(=O)C(=Cc2ccccc2OS(=O)(=O)c2ccccc2)C(=O)N(C)C1=O
EC50 [6]: > 300 µM (not active)
EC50 [7]: > 300 µM (not active)
